# Where “and” joins values, the source holds several entries; their conditions need not be identical. Identical values can stand only once. Like-named read-outs stand apart in the source and are kept apart here.
# Columns and labels:
# HIV-1 [1] = conditions: for p24: day 4 supernatant; for Mean Syncytial Counts Day 3 % / Mean Syncytial Counts Day 4 %: % of virus control; for Mean Syncytial Counts Day 4 %: 5760 min
# Experimental: (§1) JM cells were infected with HIV-1 for 2 hours at room temperature. The cells were then washed and distributed into duplicate wells containing different concentrations of the test compound and incubated at 37°C. On days 3 and 4 the cells were observed and the syncytia counted and on day 4 the supernatant fluid was also harvested for detection of p24 viral core antigen using the Abbott EIA.
# HIV-1 [2] = assay: microbe, parasite or virus in culture
# Experimental: as §1
# CMV = assay: Anti-CMV plaque reduction assay (AD169 strain, MRC 5 cell line); assay type: cell-based, cytomegalovirus (CMV); conditions: for %: % of virus control
# Experimental: Experiments were carried out whereby phosphorylated hesperidin was present at the following times of the virus (AD169 strain, MRC 5 cell line) growth cycle. • 1. During adsorption and after • 2. During adsorption, then not • 3. Only added after adsorption A virus control with no drug was present on each plate.
# [3] = system: Herpes type 2 strain HG52; assay: Herpes type 2 plaque reduction assay (Vero cells); assay type: cell-based; conditions: for %: % of virus control
# Text: Cell Line: Vero Virus: Herpes type 2 strain HG52
# [4] = Human immunodeficiency virus 1, 72 h, read-out: Mean Syncytial Counts Day 3 %
# [5] = Human immunodeficiency virus 1, 96 h, read-out: Mean Syncytial Counts Day 4 %
# [6] = First trial, added before and after adsorption, 31 µg/ml
# [7] = Second trial, during and after adsorption, 31 µg/ml
# [8] = Second trial, during and after adsorption, 62 µg/ml
# [9] = Third trial, after adsorption only, 3.75 µg/ml
# [10] = Third trial, after adsorption only, 7.5 µg/ml
# [11] = Third trial, after adsorption only, 15 µg/ml
# [12] = Third trial, after adsorption only, 31µg/ml
# [13] = Third trial, after adsorption only, 62 µg/ml
# [14] = Third trial, during adsorption only, 3.75 µg/ml
# [15] = Third trial, during adsorption only, 7.5 µg/ml
# [16] = Third trial, during adsorption only, 15 µg/ml
# [17] = Third trial, during adsorption only, 31µg/ml
# [18] = Third trial, during and after adsorption, 3.75 µg/ml
# [19] = Third trial, during and after adsorption, 7.5 µg/ml
# [20] = Third trial, during and after adsorption, 15 µg/ml
# [21] = Third trial, during and after adsorption, 31µg/ml
# [22] = Third trial, during and after adsorption, 62 µg/ml
# [23] = First trial, during adsorption and incubation, 10 µg/ml
# [24] = First trial, during adsorption and incubation, 50 µg/ml
# [25] = First trial, during adsorption and incubation, 100 µg/ml
# [26] = First trial, during adsorption, 10 µg/ml
# [27] = First trial, during adsorption, 50 µg/ml
# [28] = First trial, during adsorption, 100 µg/ml
# [29] = Second trial, during adsorption and incubation, 125 µg/ml
# [30] = Second trial, during adsorption and incubation, 250 µg/ml
# [31] = Second trial, during adsorption and incubation, 500 µg/ml
# [32] = Second trial, during adsorption, 500 µg/ml
# [33] = Second trial, incubation only, 125 µg/ml
# [34] = Second trial, incubation only, 250 µg/ml
# [35] = Second trial, incubation only, 500 µg/ml
molecule,measurement,setting,value
"Nc1ccn([C@H]2CC[C@@H](CO)O2)c(=O)n1 [ddC, reference compound]",Mean Syncytial Counts Day 3,HIV-1 [1]; Conc 0.1 µM,21
same,Mean Syncytial Counts Day 4,HIV-1 [1]; Conc 0.1 µM,31
same,Mean Syncytial Counts Day 3,HIV-1 [1]; Conc 0.3 µM,0
same,Mean Syncytial Counts Day 4,HIV-1 [1]; Conc 0.3 µM,6
same,p24,HIV-1 [1]; Conc 0.3 µM,341 pg/mL
same,Mean Syncytial Counts Day 3,HIV-1 [1]; Conc 1 µM,0
same,Mean Syncytial Counts Day 4,HIV-1 [1]; Conc 1 µM,0
same,p24,HIV-1 [1]; Conc 1 µM,199 pg/mL
same,Mean Syncytial Counts Day 3,HIV-1 [1]; Conc 3 µM,0
same,Mean Syncytial Counts Day 4,HIV-1 [1]; Conc 3 µM,0
same,p24,HIV-1 [1]; Conc 3 µM,98 pg/mL
same,Mean Syncytial Counts Day 3,HIV-1 [1]; Conc 10 µM,0
same,Mean Syncytial Counts Day 4,HIV-1 [1]; Conc 10 µM,0
same,p24,HIV-1 [1]; Conc 10 µM,132 pg/mL
same,activity at 0.1 µM,HIV-1 [2]; [4],37%
same,activity at 0.3 µM,HIV-1 [2]; [4],0%
same,activity at 1 µM,HIV-1 [2]; [4],0%
same,activity at 3 µM,HIV-1 [2]; [4],0%
same,activity at 10 µM,HIV-1 [2]; [4],0%
same,activity at 0.1 µM,HIV-1 [2]; [5],37%
same,activity at 0.3 µM,HIV-1 [2]; [5],7%
same,activity at 1 µM,HIV-1 [2]; [5],0%
same,activity at 3 µM,HIV-1 [2]; [5],0%
same,activity at 10 µM,HIV-1 [2]; [5],0%
Phosphorylated Hesperidin,No. of Plaques,CMV; [6],27 and 20 and 24
same,No. of Plaques Average,CMV; [6],24
same,%,CMV; [6],9.9%
same,No. of Plaques,"CMV; First trial, added before and after adsorption, 125 µg/ml",No plaques
same,No. of Plaques,"CMV; First trial, added before and after adsorption, 250 µg/ml",totally blocked
same,No. of Plaques,"CMV; Second trial, after adsorption only, 31 µg/m",As virus control
same,No. of Plaques,"CMV; Second trial, after adsorption only, 62 µg/ml",As virus control
same,No. of Plaques,"CMV; Second trial, after adsorption only, 125 µg/ml",As virus control
same,No. of Plaques,"CMV; Second trial, after adsorption only, 250 µg/ml",None
same,No. of Plaques,"CMV; Second trial, after adsorption only, 500 µg/ml",None
same,No. of Plaques,CMV; [7],35 and 40
same,No. of Plaques Average,CMV; [7],32.5
same,%,CMV; [7],17%
same,No. of Plaques,CMV; [8],35 and 40
same,No. of Plaques Average,CMV; [8],37.5
same,%,CMV; [8],22%
same,No. of Plaques,"CMV; Second trial, during and after adsorption, 125 µg/ml, estimate",~40 (estimate)
same,No. of Plaques,"CMV; Second trial, during and after adsorption, 250 µg/ml",None
same,No. of Plaques,"CMV; Second trial, during and after adsorption, 500 µg/ml",None
same,No. of Plaques,CMV; [9],As v.c.
same,%,CMV; [9],100%
same,No. of Plaques,CMV; [10],As v.c
same,%,CMV; [10],100%
same,No. of Plaques,CMV; [11],120 125 131
same,No. of Plaques Average,CMV; [11],125
same,plaque size (remark in No. of Plaques cell),CMV; [11],much smaller plaques
same,%,CMV; [11],66%
same,No. of Plaques,CMV; [12],119 125 128
same,No. of Plaques Average,CMV; [12],124
same,%,CMV; [12],65%
same,No. of Plaques Average,CMV; [13],89
same,plaque size (remark in No. of Plaques cell),CMV; [13],smaller plaques
same,%,CMV; [13],47%
same,No. of Plaques,CMV; [14],As v.c.
same,%,CMV; [14],100%
same,No. of Plaques,CMV; [15],As v.c.
same,No. of Plaques Average,CMV; [15],141
same,%,CMV; [15],100%
same,No. of Plaques,CMV; [16],148 140 135
same,%,CMV; [16],74%
same,No. of Plaques,CMV; [17],120 115 111
same,No. of Plaques Average,CMV; [17],115
same,plaque size (remark in No. of Plaques cell),CMV; [17],much smaller plaques
same,%,CMV; [17],61%
same,state of monolayer (printed in place of No. of Plaques),"CMV; Third trial, during adsorption only, 62 µg/ml, MRC 5 cell line",monolayer destroyed
same,No. of Plaques,CMV; [18],128 125 121
same,No. of Plaques Average,CMV; [18],125
same,%,CMV; [18],66%
same,No. of Plaques,CMV; [19],119 115 103
same,No. of Plaques Average,CMV; [19],122
same,%,CMV; [19],64%
same,No. of Plaques Average,CMV; [20],76
same,%,CMV; [20],40%
same,No. of Plaques Average,CMV; [21],60
same,%,CMV; [21],32%
same,No. of Plaques Average,CMV; [22],48
same,%,CMV; [22],25%
same,No. of Plaques,[3]; [23],253 and 243
same,No. of Plaques Average,[3]; [23],248
same,%,[3]; [23],100%
same,No. of Plaques,[3]; [24],112 and 132
same,No. of Plaques Average,[3]; [24],122
same,%,[3]; [24],54%
same,No. of Plaques,[3]; [25],95 and 62
same,No. of Plaques Average,[3]; [25],78.5
same,%,[3]; [25],35%
same,No. of Plaques,[3]; [26],211 and 231
same,No. of Plaques Average,[3]; [26],221
same,%,[3]; [26],98%
same,No. of Plaques,[3]; [27],154 and 146
same,No. of Plaques Average,[3]; [27],150
same,%,[3]; [27],66%
same,No. of Plaques,[3]; [28],187 and 144
same,No. of Plaques Average,[3]; [28],166
same,%,[3]; [28],73%
same,No. of Plaques,[3]; [29],58 and 71
same,No. of Plaques Average,[3]; [29],64.5
same,%,[3]; [29],46%
same,No. of Plaques,[3]; [30],11 and 10
same,No. of Plaques Average,[3]; [30],10.5
same,%,[3]; [30],7.5%
same,No. of Plaques,[3]; [31],None
same,No. of Plaques Average,[3]; [31],0
same,%,[3]; [31],0%
same,No. of Plaques,[3]; [32],50 and 58
same,No. of Plaques Average,[3]; [32],54
same,%,[3]; [32],38%
same,No. of Plaques,[3]; [33],50 and 61
same,No. of Plaques Average,[3]; [33],55.5
same,%,[3]; [33],39%
same,No. of Plaques,[3]; [34],16 and 11
same,No. of Plaques Average,[3]; [34],13.5
same,%,[3]; [34],9.6%
same,No. of Plaques,[3]; [35],None
same,No. of Plaques Average,[3]; [35],0
same,%,[3]; [35],0%
same,Mean Syncytial Counts Day 3 %,"HIV-1 [1]; Conc 0.1 µg/ml, 4320 min",100%
same,Mean Syncytial Counts Day 4 %,HIV-1 [1]; Conc 0.1 µg/ml,100%
same,Mean Syncytial Counts Day 3 %,"HIV-1 [1]; Conc 0.3 µg/ml, 4320 min",100%
same,Mean Syncytial Counts Day 4 %,HIV-1 [1]; Conc 0.3 µg/ml,100%
same,Mean Syncytial Counts Day 3 %,"HIV-1 [1]; Conc 1 µg/ml, 4320 min",100%
same,Mean Syncytial Counts Day 4 %,HIV-1 [1]; Conc 1 µg/ml,100%
same,Mean Syncytial Counts Day 3,HIV-1 [1]; Conc 3 µg/ml,As VC
same,Mean Syncytial Counts Day 3 %,HIV-1 [1]; Conc 3 µg/ml,100%
same,Mean Syncytial Counts Day 4 %,HIV-1 [1]; Conc 3 µg/ml,100%
same,Mean Syncytial Counts Day 3,HIV-1 [1]; Conc 10 µg/ml,51
same,Mean Syncytial Counts Day 4,HIV-1 [1]; Conc 10 µg/ml,As VC
same,Mean Syncytial Counts Day 3 %,"HIV-1 [1]; Conc 10 µg/ml, 4320 min",89%
same,Mean Syncytial Counts Day 4 %,HIV-1 [1]; Conc 10 µg/ml,100%
same,Mean Syncytial Counts Day 3,HIV-1 [1]; Conc 30 µg/ml,9
same,Mean Syncytial Counts Day 4,HIV-1 [1]; Conc 30 µg/ml,45
same,Mean Syncytial Counts Day 3 %,"HIV-1 [1]; Conc 30 µg/ml, 4320 min",16%
same,Mean Syncytial Counts Day 4 %,HIV-1 [1]; Conc 30 µg/ml,48%
same,Mean Syncytial Counts Day 3,HIV-1 [1]; Conc 100 µg/ml,0
same,Mean Syncytial Counts Day 4,HIV-1 [1]; Conc 100 µg/ml,5
same,Mean Syncytial Counts Day 3 %,"HIV-1 [1]; Conc 100 µg/ml, 4320 min",0%
same,Mean Syncytial Counts Day 4 %,HIV-1 [1]; Conc 100 µg/ml,5%
